Data: publication PMC4038168 (Chemical communications (Cambridge, England), 2014)
Entries after “also recorded” stand apart in the source; their conditions may differ.

What was measured:
human FAAH (h-FAAH) = target: T1, human FAAH (h-FAAH) (Homo sapiens, UniProt O00519); test: human FAAH inhibition; type: biochemical
T1 sequence (O00519 1-579): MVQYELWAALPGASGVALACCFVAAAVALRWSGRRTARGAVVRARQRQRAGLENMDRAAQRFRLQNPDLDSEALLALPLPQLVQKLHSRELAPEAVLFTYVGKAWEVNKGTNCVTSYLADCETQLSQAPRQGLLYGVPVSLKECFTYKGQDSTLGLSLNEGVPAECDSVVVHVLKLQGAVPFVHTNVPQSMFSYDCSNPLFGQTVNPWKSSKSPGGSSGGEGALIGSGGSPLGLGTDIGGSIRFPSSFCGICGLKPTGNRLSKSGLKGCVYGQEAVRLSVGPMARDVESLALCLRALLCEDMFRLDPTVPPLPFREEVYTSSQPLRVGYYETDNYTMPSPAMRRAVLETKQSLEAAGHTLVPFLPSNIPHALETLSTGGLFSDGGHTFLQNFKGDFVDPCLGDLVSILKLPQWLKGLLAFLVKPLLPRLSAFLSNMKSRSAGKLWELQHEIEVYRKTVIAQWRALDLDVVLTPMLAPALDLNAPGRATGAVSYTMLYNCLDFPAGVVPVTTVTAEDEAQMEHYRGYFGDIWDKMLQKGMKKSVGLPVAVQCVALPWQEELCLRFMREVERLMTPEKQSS

cannabinoid receptor CB1 [1] = target: T2, cannabinoid receptor CB1 (Homo sapiens, UniProt P21554); test: CB1 functional assay; type: cell-based
rat FAAH (r-FAAH) = target: T3, rat FAAH (r-FAAH) (Rattus norvegicus, UniProt P97612); test: rat FAAH inhibition; type: biochemical
T3 sequence (P97612 1-579): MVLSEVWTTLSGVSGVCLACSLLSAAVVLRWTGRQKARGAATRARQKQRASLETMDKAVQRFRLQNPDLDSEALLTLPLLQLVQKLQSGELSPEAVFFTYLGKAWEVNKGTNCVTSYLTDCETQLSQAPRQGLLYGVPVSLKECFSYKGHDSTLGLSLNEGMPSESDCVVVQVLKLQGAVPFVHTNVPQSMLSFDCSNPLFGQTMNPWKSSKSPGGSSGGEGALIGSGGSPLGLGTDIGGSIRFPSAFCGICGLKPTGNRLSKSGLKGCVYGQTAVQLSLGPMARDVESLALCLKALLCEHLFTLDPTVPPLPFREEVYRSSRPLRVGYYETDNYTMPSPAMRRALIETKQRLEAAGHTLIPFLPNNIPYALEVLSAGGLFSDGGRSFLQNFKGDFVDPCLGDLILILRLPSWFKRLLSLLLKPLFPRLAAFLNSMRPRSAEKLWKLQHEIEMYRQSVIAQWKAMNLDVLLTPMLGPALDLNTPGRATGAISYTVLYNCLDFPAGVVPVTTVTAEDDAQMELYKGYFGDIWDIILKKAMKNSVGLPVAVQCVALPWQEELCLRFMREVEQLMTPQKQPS

human DRD3 = human DRD3 (Homo sapiens, UniProt P35462); test: human DRD3 functional assay; type: cell-based
cannabinoid receptor CB1 [2] = target: T2, cannabinoid receptor CB1; conditions: cited from earlier work

T2 sequence (P21554 whole entry): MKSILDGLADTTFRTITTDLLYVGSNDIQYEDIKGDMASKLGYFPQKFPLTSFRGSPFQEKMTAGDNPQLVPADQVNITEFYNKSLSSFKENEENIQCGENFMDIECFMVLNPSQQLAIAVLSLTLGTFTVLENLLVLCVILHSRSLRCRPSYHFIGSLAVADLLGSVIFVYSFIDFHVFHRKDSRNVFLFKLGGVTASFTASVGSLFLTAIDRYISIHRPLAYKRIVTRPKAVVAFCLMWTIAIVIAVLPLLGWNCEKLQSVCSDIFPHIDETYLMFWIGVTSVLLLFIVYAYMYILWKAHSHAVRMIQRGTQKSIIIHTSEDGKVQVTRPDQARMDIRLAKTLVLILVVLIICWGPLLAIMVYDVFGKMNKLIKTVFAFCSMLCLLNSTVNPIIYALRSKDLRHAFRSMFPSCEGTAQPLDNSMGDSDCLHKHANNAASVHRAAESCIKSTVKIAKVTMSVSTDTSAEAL
Chain of human DRD3 (P35462 whole entry): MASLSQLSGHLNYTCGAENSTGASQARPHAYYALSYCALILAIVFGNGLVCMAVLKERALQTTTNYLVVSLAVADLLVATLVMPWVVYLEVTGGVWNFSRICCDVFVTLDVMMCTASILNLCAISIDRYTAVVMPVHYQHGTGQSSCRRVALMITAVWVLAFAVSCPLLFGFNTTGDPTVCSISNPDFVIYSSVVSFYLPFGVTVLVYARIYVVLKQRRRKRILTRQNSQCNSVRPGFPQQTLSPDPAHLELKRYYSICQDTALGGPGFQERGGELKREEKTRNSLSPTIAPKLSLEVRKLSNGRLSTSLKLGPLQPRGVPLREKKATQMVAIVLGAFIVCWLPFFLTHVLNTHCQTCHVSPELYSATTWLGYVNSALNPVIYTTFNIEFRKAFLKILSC

SMILES: O=C(NCCCCN1CCN(c2cccc(Cl)c2Cl)CC1)c1ccc(-c2ccccn2)cc1 [Compound 2, CJB090]
- inhibitory activity on h-FAAH (in words) (human FAAH (h-FAAH)): did not show any significant inhibitory activity
- CB1 activity (in words) (cannabinoid receptor CB1 [1]): rather potent CB1 agonist
- EC50 (cannabinoid receptor CB1 [1]; read-out: CB1 EC50): 0.84 µM
- inhibitory activity on r-FAAH (in words) (rat FAAH (r-FAAH)): did not show any significant inhibitory activity

SMILES: COc1ccccc1N1CCN(CCCCNC(=O)c2ccc3ccccc3c2)CC1 [Compound 3, BP-897]
- inhibitory activity on h-FAAH (in words) (human FAAH (h-FAAH)): did not show any significant inhibitory activity
- CB1 activity (in words) (cannabinoid receptor CB1 [1]): completely devoid of CB1 activity; also recorded: did not show any activity
- inhibitory activity on r-FAAH (in words) (rat FAAH (r-FAAH)): did not show any significant inhibitory activity

SMILES: NC(=O)c1cccc(-c2cccc(OC(=O)NC3CCCCC3)c2)c1 [Compound 5, URB597]
- activity on DRD3 (in words) (human DRD3): no activity
- effect on CB1 (in words) (cannabinoid receptor CB1 [2]): no effect
